Source: patent US20110218103A1, “Fluoroalkyl-substituted 2-amidobenzimidazoles” (BAYER CROPSCIENCE AG, priority 2010, published 2011)

Tests used:
Assay type in all cases: in vivo
Zea mays (ZEAMX) [1] = test: Cold stress test on crop plants, spray application in greenhouse, visual damage rating; settings: 25 g/ha, mean of three results
Procedure: Seeds of monocotyledonous and dicotyledonous crop plants were placed in sandy loam in wood-fiber pots, covered with soil and cultivated in a greenhouse under good growth conditions. The test plants were treated at the early leaf stage (BBCH10-BBCH13). To ensure uniform water supply before commencement of stress, the potted plants were supplied with the maximum amount of water immediately beforehand by dam irrigation and, after application, transferred in plastic inserts in order to prevent subsequent, excessively rapid drying. The inventive compounds, formulated in the form of wettable powders (WP), wettable granules (WG), suspension concentrates (SC) or emulsion concentrates (EC), were sprayed onto the green parts of the plants as an aqueous suspension at an equivalent water application rate of 600 l/ha with addition of 0.2% wetting agent (agrotin). Substance application was followed immediately by stress treatment of the plants (cold or drought stress). For cold stress treatment, the plants were kept under the following controlled conditions: “day”: 12 hours with illumination at 8° C. “night”: 12 hours without illumination at 1° C. The duration of the respective stress phases was guided mainly by the state of the untreated, stressed control plants and thus varies from crop to crop. It was ended (by re-irrigating or transfer to a greenhouse with good growth conditions) as soon as irreversible damage is observed on the untreated, stressed control plants. In the case of dicotyledonous crops, for example oilseed rape and soya, the duration of the drought stress phase was between 3 and 5 days, in the case of monocotyledonous crops, for example wheat, barley or corn, between 6 and 10 days. The duration of the cold stress phase varied between 12 and 14 days. The end of the stress phase was followed by an approx. 5-7-day recovery phase, during which the plants were once again kept under good growth conditions in a greenhouse. […] The intensity of damage was first assessed as a percentage (100%=plants have died, 0%=like control plants). […]

Zea mays (ZEAMX) [2] = test: Drought stress test on crop plants, spray application in greenhouse, visual damage rating; settings: 25 g/ha, mean of three results
Procedure: Seeds of monocotyledonous and dicotyledonous crop plants were placed in sandy loam in wood-fiber pots, covered with soil and cultivated in a greenhouse under good growth conditions. The test plants were treated at the early leaf stage (BBCH10-BBCH13). To ensure uniform water supply before commencement of stress, the potted plants were supplied with the maximum amount of water immediately beforehand by dam irrigation and, after application, transferred in plastic inserts in order to prevent subsequent, excessively rapid drying. The inventive compounds, formulated in the form of wettable powders (WP), wettable granules (WG), suspension concentrates (SC) or emulsion concentrates (EC), were sprayed onto the green parts of the plants as an aqueous suspension at an equivalent water application rate of 600 l/ha with addition of 0.2% wetting agent (agrotin). Substance application was followed immediately by stress treatment of the plants (cold or drought stress). For cold stress treatment, the plants were kept under the following controlled conditions: Drought stress was induced by gradual drying out under the following conditions: “day”: 14 hours with illumination at 26° C. “night”: 10 hours without illumination at 18° C. The duration of the respective stress phases was guided mainly by the state of the untreated, stressed control plants and thus varies from crop to crop. It was ended (by re-irrigating or transfer to a greenhouse with good growth conditions) as soon as irreversible damage is observed on the untreated, stressed control plants. In the case of dicotyledonous crops, for example oilseed rape and soya, the duration of the drought stress phase was between 3 and 5 days, in the case of monocotyledonous crops, for example wheat, barley or corn, between 6 and 10 days. The duration of the cold stress phase varied between 12 and 14 days. The end of the stress phase was followed by an approx. 5-7-day recovery phase, during which the plants were once again kept under good growth conditions in a greenhouse. In order to rule out any influence of the effects observed by any fungicidal action of the test compounds, it was additionally ensured that the tests proceed without fungal infection and without infection pressure. After the recovery phase had ended, the intensities of damage were rated visually compared to untreated, unstressed controls of the same age (in the case of drought stress) or the same growth stage (in the case of cold stress). The intensity of damage was first assessed as a percentage (100%=plants have died, 0%=like control plants). These values were then used to calculate the efficacy of the test compounds (=percentage reduction in the intensity of damage as a result of substance application) by the following formula: [formula] EF: efficacy (%) DVus: damage value of the untreated, stressed control DVts: damage value of the plants treated with test compound The tables below list mean values in each case from three results of the same test. Effects of selected compounds of the formula (I) under drought stress: ZEAMX=Zea mays

Brassica napus (BRSNS) = test: as above; settings: 50 g/ha, mean of three results
Procedure: Seeds of monocotyledonous and dicotyledonous crop plants were placed in sandy loam in wood-fiber pots, covered with soil and cultivated in a greenhouse under good growth conditions. The test plants were treated at the early leaf stage (BBCH10-BBCH13). To ensure uniform water supply before commencement of stress, the potted plants were supplied with the maximum amount of water immediately beforehand by dam irrigation and, after application, transferred in plastic inserts in order to prevent subsequent, excessively rapid drying. The inventive compounds, formulated in the form of wettable powders (WP), wettable granules (WG), suspension concentrates (SC) or emulsion concentrates (EC), were sprayed onto the green parts of the plants as an aqueous suspension at an equivalent water application rate of 600 l/ha with addition of 0.2% wetting agent (agrotin). Substance application was followed immediately by stress treatment of the plants (cold or drought stress). For cold stress treatment, the plants were kept under the following controlled conditions: Drought stress was induced by gradual drying out under the following conditions: “day”: 14 hours with illumination at 26° C. “night”: 10 hours without illumination at 18° C. The duration of the respective stress phases was guided mainly by the state of the untreated, stressed control plants and thus varies from crop to crop. It was ended (by re-irrigating or transfer to a greenhouse with good growth conditions) as soon as irreversible damage is observed on the untreated, stressed control plants. In the case of dicotyledonous crops, for example oilseed rape and soya, the duration of the drought stress phase was between 3 and 5 days, in the case of monocotyledonous crops, for example wheat, barley or corn, between 6 and 10 days. The duration of the cold stress phase varied between 12 and 14 days. The end of the stress phase was followed by an approx. 5-7-day recovery phase, during which the plants were once again kept under good growth conditions in a greenhouse. In order to rule out any influence of the effects observed by any fungicidal action of the test compounds, it was additionally ensured that the tests proceed without fungal infection and without infection pressure. After the recovery phase had ended, the intensities of damage were rated visually compared to untreated, unstressed controls of the same age (in the case of drought stress) or the same growth stage (in the case of cold stress). The intensity of damage was first assessed as a percentage (100%=plants have died, 0%=like control plants). These values were then used to calculate the efficacy of the test compounds (=percentage reduction in the intensity of damage as a result of substance application) by the following formula: [formula] EF: efficacy (%) DVus: damage value of the untreated, stressed control DVts: damage value of the plants treated with test compound The tables below list mean values in each case from three results of the same test. Effects of selected compounds of the formula (I) under drought stress: BRSNS=Brassica napus

NC(=O)c1cccc2[nH]c(C(F)(F)F)nc12 [1-14]
>5%: EF (ZEAMX), efficacy = percentage reduction in the intensity of damage (Zea mays (ZEAMX) [1]) | EF (ZEAMX), efficacy = percentage reduction in the intensity of damage (Zea mays (ZEAMX) [2]) | EF (BRSNS), efficacy = percentage reduction in the intensity of damage (Brassica napus (BRSNS))
